ChEMBL document CHEMBL3044774, “Synthesis of D-glucosamine quaternary ammonium derivatives and evaluation of their antifungal activity together with aminodeoxyglucose derivatives against two wood fungi Coriolus versicolor and Poria placenta: structure-activity relationships” (2011)

Legend:
Format in all cases: functional
Poria [1] = assay: Antifungal activity against Poria placenta FPRL 280 assessed as mycelial growth inhibition at 0.75 x 10^-4 mol/ml after 9 days relative to control
Trametes versicolor [2] = assay: Antifungal activity against Trametes versicolor Quel. CTB 863-A assessed as mycelial growth inhibition at 1.5 x 10^-4 mol/ml after 9 days relative to control
Poria [3] = assay: Antifungal activity against Poria placenta FPRL 280 assessed as mycelial growth inhibition at 0.5 x 10^-4 mol/ml after 9 days relative to control
Trametes versicolor [4] = assay: Antifungal activity against Trametes versicolor Quel. CTB 863-A assessed as mycelial growth inhibition at 1 x 10^-4 mol/ml after 9 days relative to control

SMILES	growth inhibition (GI) (Poria [1])	growth inhibition (GI) (Trametes versicolor [2])	growth inhibition (GI) (Poria [3])	growth inhibition (GI) (Trametes versicolor [4])
CC(=O)OC[C@H]1OC(OC(C)=O)[C@H](N(C)C)[C@@H](OC(C)=O)[C@@H]1OC(C)=O (stereo partly specified)	48.2%	34.9%	–	–
N[C@@H]1O[C@H](CO)[C@@H](O)[C@H](O)[C@H]1O	100%	82.4%	81.6%	50.6%
N[C@H]1[C@H](O)[C@@H](CO)OC(O)[C@@H]1O (stereo partly specified)	26.7%	14.9%	18.4%	0%
NC[C@H]1O[C@@H](O)[C@H](O)[C@@H](O)[C@@H]1O	31.7%	19.2%	27.1%	6.7%
CC(=O)OC[C@H]1OC(OC(C)=O)[C@H]([N+](C)(C)C)[C@@H](OC(C)=O)[C@@H]1OC(C)=O (stereo partly specified)	74.1%	45.9%	–	–
CCN[C@H]1C(OC(C)=O)O[C@H](COC(C)=O)[C@@H](OC(C)=O)[C@@H]1OC(C)=O (stereo partly specified)	–	53.7%	–	–
CC[N+](C)(C)[C@H]1C(OC(C)=O)O[C@H](COC(C)=O)[C@@H](OC(C)=O)[C@@H]1OC(C)=O (stereo partly specified)	80%	74.9%	–	–
CCN[C@H]1C(O)O[C@H](CO)[C@@H](O)[C@@H]1O (stereo partly specified)	47.1%	40.4%	–	–
CC[N+](C)(C)[C@H]1C(O)O[C@H](CO)[C@@H](O)[C@@H]1O.O=S(=O)([O-])O (stereo partly specified)	77.2%	64.4%	–	–
CC(=O)OC[C@H]1OC(OC(C)=O)[C@H](NC2CCCCC2)[C@@H](OC(C)=O)[C@@H]1OC(C)=O (stereo partly specified)	91.8%	87.9%	–	–
CC(=O)OC[C@H]1OC(OC(C)=O)[C@H]([N+](C)(C)C2CCCCC2)[C@@H](OC(C)=O)[C@@H]1OC(C)=O (stereo partly specified)	100%	100%	–	–
N[C@H]1C(O)O[C@H](CO)[C@@H](O)[C@@H]1O (stereo partly specified) [GLUCOSAMINE]	25.9%	11%	10.2%	0%
